For series [1], the system named is Myzus persicae. Put plainly: Myzus persicae oral test (MYZUPE O). In kind it is in vivo. Conditions: for Emax at 0.8 ppm / Emax at 4 ppm: MYZUPE O, 5 dat, read-out: % efficacy. As to the method: Solvent: 100 parts by weight of acetone
To produce a suitable preparation of active compound, 1 part by weight of active compound is dissolved using the specified parts by weight of solvent and made up with water until the desired concentration is attained.
50 μl of the active compound preparation are transferred into microtitre plates and made up to a final volume of 200 μl with 150 μl of IPL41 insect medium (33%+15% sugar). Subsequently, the plates are sealed with parafilm, which a mixed population of green peach aphids (Myzus persicae) within a second microtitre plate is able to puncture and imbibe the solution through it.
After 5 days, the efficacy in % is determined. 100% means that all the aphids have been killed; 0% means that no aphids have been killed.
Myzus persicae—Oral Test (MYZUPE O)
After 5 or 6 days (dat), the efficacy in % is determined. 100% means that all the aphids have been killed; 0% means that no aphids have been killed.

For series [2], the system named is Myzus persicae. Put plainly: Myzus persicae spray test (MYZUPE), Chinese cabbage leaf discs. The class given is in vivo. Conditions: for Emax at 100 g/ha: MYZUPE, 100 g of ai/ha, read-out: % efficacy. The protocol: Myzus persicae—Spray Test
To produce a suitable preparation of active compound, 1 part by weight of active compound is dissolved using the specified parts by weight of solvent and made up with water containing an emulsifier concentration of 1000 ppm until the desired concentration is attained. To produce further test concentrations, the formulation is diluted with emulsifier-containing water.
Discs of Chinese cabbage leaves (Brassica pekinensis) infested by all stages of the green peach aphid (Myzus persicae) are sprayed with an active compound formulation of the desired concentration.
After 5 or 6 days, the efficacy in % is determined. 100% means that all the aphids have been killed; 0% means that no aphids have been killed.
Myzus persicae—Spray Test (MYZUPE)
Discs of Chinese cabbage leaves (Brassica pekinensis) infested by all stages of the green peach aphid (Myzus persicae) are sprayed with an active compound preparation of the desired concentration.
After the desired period of time, the efficacy in % is determined. 100% means that all the aphids have been killed; 0% means that no aphids have been killed.

Series [3] can be described thus: log P by HPLC on reversed-phase columns (OECD Guideline 117), neutral range. In kind it is physicochemical. Conditions: for chromatographic logP: reversed-phase (C18) HPLC column.
[4] abbreviates: after 5 days, application rate 20 ppm.
The mark [5] stands for this setting: after 6 days, application rate 500 g/ha.
Where [6] appears, read: after 5 days, application rate 500 g/ha.

Consider 41 molecules from US10647699B2, “Substituted 2-oxyimidazolylcarboxamides as pesticides” (Bayer CropScience Aktiengesellschaft, priority 2016, dated 2020).

Like-named read-outs stand apart in the source and are kept apart here.

Regarding `Cc1nc(C(=O)Nc2cccnc2)c[nH]1` [Comparative Ex. 1, reference compound], in series [1] (Myzus persicae, po, 120 h), the Emax at 0.8 ppm stood at 0% and the Emax at 4 ppm turned out to be 0%. For the same molecule, the Emax at 100 g/ha in series [2] (Myzus persicae, foliar, 5/6 dat) is 0%.
Regarding `O=C(Nc1cccnc1)c1c[nH]cn1` [Comparative Ex. 2, reference compound], in series [1] (Myzus persicae, po, 120 h), the Emax at 0.8 ppm worked out at 0% and the Emax at 4 ppm stood at 0%. For the same molecule, the Emax at 100 g/ha in series [2] (Myzus persicae, foliar, 144 h, 6 dat) amounted to 0%.
As for `CN(C(=O)c1cnc(OCc2ncccn2)n1C)c1cccnc1` [Example II-11], the LogP-neutral in series [3] (pH 7.8) is listed as 0.53.
Regarding `CN(C(=O)c1cnc(Oc2ccccc2Cl)n1C)c1cccnc1` [Example II-13], the efficacy in series [1] (setting [4]) and in series [2] (setting [5]) was 100% in each case. Further, the LogP-neutral in series [3] (HPLC, neutral range pH 7.8) is given as 1.94.
The molecule `CN(C(=O)c1cnc(Oc2ccccn2)n1C)c1cccnc1` [Example II-16] displayed an efficacy in series [1] (setting [4]) of 100%. Moreover, the LogP-neutral in series [3] (HPLC, neutral range pH 7.8) is recorded as 1.13.
In the case of `CN(C(=O)c1cnc(OCc2ccc(F)cc2)n1C)c1cccnc1` [Example II-18], the efficacy in series [1] (setting [4]) and in series [2] (setting [5]) was 100% throughout.
Regarding `CCC(C)Oc1ncc(C(=O)N(C)c2cccnc2)n1C` (stereo not drawn) [Example II-20], the efficacy in series [1] (setting [4]) and in series [2] (setting [5]) was 100% each time. The same molecule came in with a LogP-neutral in series [3] (pH 7.8) of 1.75.
`CN(C(=O)c1cnc(OC2CCCC2)n1C)c1cccnc1` [Example II-21]: the efficacy in series [1] (setting [4]) and in series [2] (setting [5]) was 90% throughout. The molecule also yielded a LogP-neutral in series [3] (pH 7.8) of 1.83.
For the molecule `CN(C(=O)c1cnc(OC2CCCCC2)n1C)c1cccnc1` [Example II-22], the efficacy in series [1] (setting [4]) and in series [2] (setting [5]) was 90% in each case. In series [3] (pH 7.8), this molecule returned a LogP-neutral of 2.15.
Take `CN(C(=O)c1cnc(Oc2ccc(Cl)c(Cl)c2)n1C)c1cccnc1` [Example II-28]: the efficacy in series [1] (setting [4]) stood at 90%; in series [2] (setting [6]) it was 100%. Also, the LogP-neutral in series [3] (HPLC, neutral range pH 7.8) stood at 2.57.
Consider `COc1ccc(Oc2ncc(C(=O)N(C)c3cccnc3)n2C)cn1` [Example II-39], for which the efficacy in series [1] (setting [4]) and in series [2] (setting [6]) was 90% in each case. In addition, in series [3] (pH 7.8), the LogP-neutral is listed as 1.5.
Turning to `Cc1ccc(Oc2ncc(C(=O)N(C)c3cccnc3)n2C)cn1` [Example II-44], the efficacy in series [1] (setting [4]) is 100%; in series [2] (setting [6]) it was 90%. Also, the LogP-neutral in series [3] (pH 7.8) came to 1.26.
On the same counts, the results for `CCOc1ncc(C(=O)N(CC)c2cccnc2)n1C` [Example II-48] are 100%, 90% and 1.45.
Take `CN(C(=O)c1cnc(Oc2ccc(Oc3ccc(F)nc3)nc2)n1C)c1cccnc1` [Example II-49]: the efficacy in series [1] (setting [4]) was 100%; in series [2] (setting [6]), 90%. The molecule also showed a LogP-neutral in series [3] (pH 7.8) of 1.86.
For `CN(C(=O)c1cnc(Oc2ccc(Oc3ccc(Oc4ccc(F)nc4)nc3)nc2)n1C)c1cccnc1` [Example II-50], the results for the efficacy in series [1] (setting [4]) and in series [2] (setting [6]) were 100% and 90%, respectively. Moreover, the LogP-neutral in series [3] (pH 7.8) is 2.3.
Consider `CCN(C(=O)c1cnc(Oc2ccc(Oc3ccc(Cl)nc3)nc2)n1C)c1cccnc1` [Example II-51], for which the efficacy in series [1] (setting [4]) and in series [2] (setting [6]) was 100% throughout. This molecule displayed a LogP-neutral in series [3] (pH 7.8) of 2.26.
For `Cc1ccncc1Oc1ncc(C(=O)N(C)c2cccnc2)n1C` [Example II-53], the efficacy in series [1] (setting [4]) is listed as 100%; in series [2] (setting [6]), 90%. For the same molecule, the LogP-neutral in series [3] (HPLC, neutral range pH 7.8) amounted to 1.24.
Turning to `Cc1cncc(Oc2ncc(C(=O)N(C)c3cccnc3)n2C)c1` [Example II-54], the efficacy in series [1] (setting [4]) came out at 100%; in series [2] (setting [6]) it was 90%. The LogP-neutral in series [3] (pH 7.8) worked out at 1.31.
In the case of `CN(C(=O)c1cnc(Oc2cccnc2)n1C)c1cccnc1` [Example II-55], the efficacy in series [1] (setting [4]) and in series [2] (setting [6]) was 100% in each case. Moreover, the LogP-neutral in series [3] (HPLC, neutral range pH 7.8) was determined as 1.08.
Turning to `CN(C(=O)c1cnc(Oc2ccc(C(F)(F)F)nc2)n1C)c1cccnc1` [Example II-56], the efficacy in series [1] (setting [4]) is recorded as 100%; in series [2] (setting [6]), 90%. For the same molecule, the LogP-neutral in series [3] (pH 7.8) was 1.9.
In the same order, the values of `Cc1cc(Oc2ncc(C(=O)N(C)c3cccnc3)n2C)cnc1Cl` [Example II-57] are 100%, 90% and 1.78.
On the same counts, the results for `Cc1cc(Cl)ncc1Oc1ncc(C(=O)N(C)c2cccnc2)n1C` [Example II-59] are 100%, 90% and 1.68.
On to `COc1cncc(Oc2ncc(C(=O)N(C)c3cccnc3)n2C)c1` [Example II-60], for which the figures for the efficacy in series [1] (setting [4]) and in series [2] (setting [6]) were 100% and 90%, respectively. Moreover, the LogP-neutral in series [3] (pH 7.8) was found to be 1.28.
On the same counts, the results for `CN(C(=O)c1cnc(Oc2ccc(Br)nc2)n1C)c1cccnc1` [Example II-61] are 90%, 100% and 1.63.
Take `CN(C(=O)c1cnc(Oc2cncc(C#N)c2)n1C)c1cccnc1` [Example II-62]: the efficacy came to 100% in series [1] (setting [4]) and 90% in series [2] (setting [6]). Also, the LogP-neutral in series [3] (HPLC, neutral range pH 7.8) was 1.27.
For `CN(C(=O)c1cnc(Oc2cnc3ccccc3c2)n1C)c1cccnc1` [Example II-63], in series [1] (Myzus persicae, po, 120 h), the Emax at 0.8 ppm came to 90% and the Emax at 4 ppm is 100%. Besides, the pest or weed control at 20 ppm in series [1] (Myzus persicae, po, 120 h, after 5 days, application rate 20 ppm, read-out: efficacy) was found to be 100%. The chromatographic logP in series [3] (HPLC, neutral range pH 7.8, read-out: LogP-neutral) is 1.72. For the same molecule, the Emax at 100 g/ha in series [2] (Myzus persicae, foliar, 120 h, 5 dat) came out at 90%. Moreover, the pest or weed control at 500 g/ha in series [2] (Myzus persicae, foliar, 120 h, after 5 days, application rate 500 g/ha, read-out: efficacy) came to 90%.
`COc1cc(Oc2ncc(C(=O)N(C)c3cccnc3)n2C)cnc1OC` [Example II-64]: the efficacy in series [1] (after 5 days, application rate 4 ppm) amounted to 100%; in series [2] (setting [6]), 100%. This molecule returned a LogP-neutral in series [3] (pH 7.8) of 1.49.
For the molecule `CN(C(=O)c1cnc(Oc2cnccc2Cl)n1C)c1cccnc1` [Example II-65], the efficacy in series [1] (setting [4]) and in series [2] (setting [6]) was 100% each time. This molecule also gave a LogP-neutral in series [3] (pH 7.8) of 1.4.
On to `CN(C(=O)c1cnc(Oc2cccnc2Cl)n1C)c1cccnc1` [Example II-66], for which the efficacy in series [1] (setting [4]) and in series [2] (setting [6]) was 100% throughout. The molecule further returned a LogP-neutral in series [3] (HPLC, neutral range pH 7.8) of 1.45.
As for `CN(C(=O)c1cnc(Oc2cncc(Br)c2)n1C)c1cccnc1` [Example II-67], the efficacy in series [1] (setting [4]) and in series [2] (setting [6]) was 100% in each case. Besides, the LogP-neutral in series [3] (pH 7.8) is 1.62.
With `CN(C(=O)c1cnc(Oc2ccc(Cl)nc2)n1C)c1cccnc1` [Example II-68], the efficacy in series [1] (setting [4]) turned out to be 100%; in series [2] (setting [6]) it was 90%. In series [3] (HPLC, neutral range pH 7.8), this molecule came in with a LogP-neutral of 1.45.
`CN(C(=O)c1cnc(Oc2ccc(Oc3ccc(Cl)nc3)nc2)n1C)c1cccnc1` [Example II-69] showed a LogP-neutral in series [3] (pH 7.8) of 1.94.
For `COc1ncc(Cl)cc1Oc1ncc(C(=O)N(C)c2cccnc2)n1C` [Example II-70], the efficacy in series [1] (setting [4]) is 100%; in series [2] (setting [6]) it was 90%. The molecule also yielded a LogP-neutral in series [3] (pH 7.8) of 2.02.
Regarding `CN(C(=O)c1cnc(Oc2cccc(C#N)c2)n1C)c1cccnc1` [Example II-72], the efficacy in series [1] (setting [4]) came out at 100%; in series [2] (setting [6]) it was 90%. Further, the LogP-neutral in series [3] (HPLC, neutral range pH 7.8) is 1.52.
In the case of `CCOc1cccc(Oc2ncc(C(=O)N(C)c3cccnc3)n2C)c1` [Example II-73], the results for the efficacy in series [1] (setting [4]) and in series [2] (setting [6]) were 100% and 90%, respectively. For the same molecule, the LogP-neutral in series [3] (pH 7.8) came out at 2.1.
In series [3] (pH 7.8), `COc1cccc(Oc2ncc(C(=O)N(C)c3cccnc3)n2C)c1` [Example II-76] displayed a LogP-neutral of 1.75.
Still for that read-out and setting: the same measure for `CN(C(=O)c1cnc(OCC(F)(F)F)n1C)c1cccnc1` [Example II-96]: 0.9; for `CCN(C(=O)c1cnc(Oc2cncc(Cl)c2)n1C)c1cccnc1` [Example II-97]: 2.03.
For `CC(C)Oc1ncc(C(=O)Nc2cccnc2)n1C` [II-1-H], the “log P[n]” value in series [3] (pH 7.8) stood at 1.61.
On to `CN(C(=O)c1cnc(Cl)n1C)c1cccnc1` [IX-1, 2-chloro-N, 1-dimethyl-N-(pyridin-3-yl)-1H-imidazole-5-carboxamide], for which the chromatographic logP in series [3] (pH 7.8, HPLC-MS, neutral, read-out: log P[n]) worked out at 0.88.
Consider `Cn1c(C(=O)Nc2cccnc2)c[nH]c1=O` [VI-1-H], for which, in series [3] (pH 7.8), the “log P[n]” value was found to be 0.1.
